# Measured values published in ChEMBL document CHEMBL5143647, “Design, synthesis and biological evaluation of novel pyridine derivatives as gut-selective NaPi2b inhibitors” (Bioorg Med Chem Lett, 2022).
# Activity calls are given as the source filed them. No cut-off for these calls is given here.
# How the values were obtained:
# [1] = Oral bioavailability in Sprague-Dawley rat at 11.9 mg/kg measured for 24 hrs by liquid chromatography-tandem mass spectrometry; format: ADME, organism-based; details: in vivo
# [2] = biological target: T1, Sodium-dependent phosphate transport protein 2B (Homo sapiens) (UniProt O95436); assay: Inhibition of human NaPi2b at 1 uM relative to control
# T1 sequence (whole entry): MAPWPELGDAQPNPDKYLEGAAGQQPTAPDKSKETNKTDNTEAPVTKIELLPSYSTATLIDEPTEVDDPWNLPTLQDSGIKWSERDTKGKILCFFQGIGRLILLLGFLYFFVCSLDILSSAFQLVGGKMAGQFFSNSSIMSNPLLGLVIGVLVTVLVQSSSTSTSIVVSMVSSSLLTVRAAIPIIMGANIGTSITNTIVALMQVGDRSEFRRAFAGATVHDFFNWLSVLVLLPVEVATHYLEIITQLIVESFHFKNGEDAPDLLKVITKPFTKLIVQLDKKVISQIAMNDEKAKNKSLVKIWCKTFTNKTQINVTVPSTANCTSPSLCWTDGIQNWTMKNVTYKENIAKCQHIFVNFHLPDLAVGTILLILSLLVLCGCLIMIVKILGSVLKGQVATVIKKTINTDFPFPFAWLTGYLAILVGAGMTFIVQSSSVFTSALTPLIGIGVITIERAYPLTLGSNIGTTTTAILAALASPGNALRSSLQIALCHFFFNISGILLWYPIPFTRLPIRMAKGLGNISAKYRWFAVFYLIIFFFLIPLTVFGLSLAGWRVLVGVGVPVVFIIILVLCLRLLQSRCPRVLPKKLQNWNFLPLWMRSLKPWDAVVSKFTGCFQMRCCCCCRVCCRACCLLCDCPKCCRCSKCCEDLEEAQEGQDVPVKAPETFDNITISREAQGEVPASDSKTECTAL
# [3] = biological target: T2, Sodium-dependent phosphate transport protein 2B (Homo sapiens, UniProt O95436); assay: Inhibition of human NaPi2b stably expressed in CHO-K1 cells assessed as reduction in H2[33P]O4 uptake incubated for 30 mins by liquid scintillation counting method; format: cell-based
# T2 sequence (O95436 whole entry): T1 sequence (whole entry)
# [4] = Oral bioavailability in Sprague-Dawley rat at 10 mg/kg measured for 24 hrs by liquid chromatography-tandem mass spectrometry relative to control; format: ADME, organism-based; details: in vivo
# [5] = Drug excretion in Sprague-Dawley rat feces at 10 mg/kg, po measured for 24 hrs by liquid chromatography-tandem mass spectrometry relative to control; format: ADME, organism-based; details: faeces, read-out: Drug excretion
# [6] = Solubility in FaSSIF at pH 6.6 incubated for 25 degC for 2 hrs further incubated water bath at 35 degC for 22 hrs by HPLC analysis; format: physicochemical
# [7] = Solubility in FeSSIF at pH 4.9 incubated for 25 degC for 2 hrs further incubated water bath at 35 degC for 22 hrs by HPLC analysis; format: physicochemical
# Rattus norvegicus = assay: In vivo inhibition of NaPi2b in Sprague-Dawley rat assessed as reduction in phosphate absorption at 10 mg/kg, po after 5 mins followed by NaH2PO4 containing 32P-phosphate solution treatment and measured after 15 to 30 mins by liquid scintillation counting method; format: functional, organism-based; details: dose […], time 35.0 min
smiles,measurement,setting,value
CCN([C@H]1CC[C@H](C(=O)O)CC1)S(=O)(=O)c1cccc(C(=O)Nc2ccc(N3CCCCC3)nc2C(=O)Nc2ccc(CCc3ccc(C(=O)NS(=O)(=O)NC)cc3)cc2)c1,bioavailability,[1],10.4%
CCC(CC)N(CCN(C)C(=O)CCC(=O)O)Cc1cccc(C(=O)Nc2[nH]c3c(c2C(=O)Nc2ccc(CCc4ccc(C(=O)O)cc4)cc2)CCCC3)c1,inhibition,[2],87%
CCC(CC)N(CCN(C)C(=O)CCC(=O)O)Cc1cccc(C(=O)Nc2ccc(N3CCCCC3)nc2C(=O)Nc2ccc(Oc3ccc(C(=O)O)cn3)cc2)c1,IC50,[3],715 nM
CCN([C@H]1CC[C@H](C(=O)NCCOCCOCCOCCO)CC1)S(=O)(=O)c1cccc(C(=O)Nc2ccc(N3CCCCC3)nc2C(=O)Nc2ccc(CCc3ccc(C(=O)O)cc3)cc2)c1,bioavailability,[4],2.7%
same,dose excreted at 24 h,[5],99.1%
same,solubility at 24 h,[6],20.5 µg/mL
same,solubility at 24 h,[7],15.9 µg/mL
same,inhibition,Rattus norvegicus,Active
CCC(CC)N(CCN(C)C(=O)CCC(=O)O)Cc1cccc(C(=O)Nc2ccc(N3CCOCC3)nc2C(=O)Nc2ccc(CCc3ccc(C(=O)O)cc3)cc2)c1,IC50,[3],205 nM
CCC(CC)N(CCN(C)C(=O)CCC(=O)O)Cc1cccc(C(=O)Nc2ccc(N3CCCCC3)nc2C(=O)Nc2ccc(Oc3ccc(C(=O)O)cc3)cc2)c1,IC50,[3],162 nM
